In US20220169598A1, “HALOGENATED PHENYLSULFONAMIDE HYDROXAMIC ACID COMPOUNDS, COMPOSITIONS AND USES THEREOF AS SELECTIVE HDAC6 INHIBITORS” (2681603 ONTARIO INC., priority 2019, published 2022):

Legend:
HDAC7 = biological target: T1, HDAC7 (Homo sapiens, UniProt Q8WUI4); experiment: in vitro activity-based HDAC assay; format: biochemical; conditions: human HDAC isoform panel, Table 1
T1 sequence (Q8WUI4 1-952): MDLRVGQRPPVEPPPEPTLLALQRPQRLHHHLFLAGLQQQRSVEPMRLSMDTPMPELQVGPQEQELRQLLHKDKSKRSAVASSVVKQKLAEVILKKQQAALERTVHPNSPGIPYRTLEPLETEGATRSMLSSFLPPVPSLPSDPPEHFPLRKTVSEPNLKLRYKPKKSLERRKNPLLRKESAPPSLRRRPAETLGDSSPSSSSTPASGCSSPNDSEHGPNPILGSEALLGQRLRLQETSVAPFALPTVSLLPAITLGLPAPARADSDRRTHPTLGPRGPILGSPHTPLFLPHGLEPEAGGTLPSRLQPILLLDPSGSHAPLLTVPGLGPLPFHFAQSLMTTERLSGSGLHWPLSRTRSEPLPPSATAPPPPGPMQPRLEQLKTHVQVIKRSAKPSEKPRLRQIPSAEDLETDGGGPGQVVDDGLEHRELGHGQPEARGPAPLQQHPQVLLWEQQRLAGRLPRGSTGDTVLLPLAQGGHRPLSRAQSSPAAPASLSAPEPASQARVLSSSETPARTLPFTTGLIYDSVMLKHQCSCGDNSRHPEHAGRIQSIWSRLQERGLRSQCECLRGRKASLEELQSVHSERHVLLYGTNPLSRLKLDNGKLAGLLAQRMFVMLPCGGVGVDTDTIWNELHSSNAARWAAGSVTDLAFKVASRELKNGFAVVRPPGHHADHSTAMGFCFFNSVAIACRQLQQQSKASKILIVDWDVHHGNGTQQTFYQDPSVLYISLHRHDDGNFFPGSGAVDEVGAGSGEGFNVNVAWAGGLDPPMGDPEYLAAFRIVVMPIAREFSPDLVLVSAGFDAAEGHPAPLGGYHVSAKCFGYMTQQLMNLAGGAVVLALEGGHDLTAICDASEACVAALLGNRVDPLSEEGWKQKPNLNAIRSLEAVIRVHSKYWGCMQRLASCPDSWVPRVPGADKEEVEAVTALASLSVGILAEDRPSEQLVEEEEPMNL

HDAC5 = HDAC5 (Homo sapiens, UniProt Q9UQL6); experiment: in vitro activity-based HDAC assay; format: biochemical; conditions: human HDAC isoform panel, Table 1
HDAC11 = HDAC11 (Homo sapiens, UniProt Q96DB2); experiment: in vitro activity-based HDAC assay; format: biochemical; conditions: human HDAC isoform panel, Table 1
HDAC8 = HDAC8 (Homo sapiens, UniProt Q9BY41); experiment: in vitro activity-based HDAC assay; format: biochemical; conditions: human HDAC isoform panel, Table 1
panel of 97 kinases = experiment: Kinome screen; format: biochemical; conditions: kinase screen
[1] = Plasma stability by LC-MS; format: in vitro ADME; conditions: mouse plasma
Description: The stability of select compounds of the application in plasma was assessed quantitatively through LC-MS and the results are shown in Table 6.

MOLM-13 = experiment: Cytotoxicity in cell lines; format: cell-based; conditions: Homo sapiens, MOLM-13; Table 4; read-out: IC50 MOLM-13
Description: (§1) The cytotoxicity of exemplary compounds of the application was tested in multiple cell lines including MV-4-11, MOLM-13, MCF-7, MRC9, K562 and MM.1S. The therapeutic index was evaluated by determining the toxicity of the exemplary compounds in healthy cell lines including fibroblasts and HUVEC.

MRC9 = experiment: Cytotoxicity in cell lines; format: cell-based; conditions: Table 4
Description: as §1

K562 = experiment: Cytotoxicity in cell lines; format: cell-based; conditions: Homo sapiens, K562; Table 4; read-out: IC50 K562
Description: as §1

HDAC5, sequence (Q9UQL6 whole entry, canonical isoform): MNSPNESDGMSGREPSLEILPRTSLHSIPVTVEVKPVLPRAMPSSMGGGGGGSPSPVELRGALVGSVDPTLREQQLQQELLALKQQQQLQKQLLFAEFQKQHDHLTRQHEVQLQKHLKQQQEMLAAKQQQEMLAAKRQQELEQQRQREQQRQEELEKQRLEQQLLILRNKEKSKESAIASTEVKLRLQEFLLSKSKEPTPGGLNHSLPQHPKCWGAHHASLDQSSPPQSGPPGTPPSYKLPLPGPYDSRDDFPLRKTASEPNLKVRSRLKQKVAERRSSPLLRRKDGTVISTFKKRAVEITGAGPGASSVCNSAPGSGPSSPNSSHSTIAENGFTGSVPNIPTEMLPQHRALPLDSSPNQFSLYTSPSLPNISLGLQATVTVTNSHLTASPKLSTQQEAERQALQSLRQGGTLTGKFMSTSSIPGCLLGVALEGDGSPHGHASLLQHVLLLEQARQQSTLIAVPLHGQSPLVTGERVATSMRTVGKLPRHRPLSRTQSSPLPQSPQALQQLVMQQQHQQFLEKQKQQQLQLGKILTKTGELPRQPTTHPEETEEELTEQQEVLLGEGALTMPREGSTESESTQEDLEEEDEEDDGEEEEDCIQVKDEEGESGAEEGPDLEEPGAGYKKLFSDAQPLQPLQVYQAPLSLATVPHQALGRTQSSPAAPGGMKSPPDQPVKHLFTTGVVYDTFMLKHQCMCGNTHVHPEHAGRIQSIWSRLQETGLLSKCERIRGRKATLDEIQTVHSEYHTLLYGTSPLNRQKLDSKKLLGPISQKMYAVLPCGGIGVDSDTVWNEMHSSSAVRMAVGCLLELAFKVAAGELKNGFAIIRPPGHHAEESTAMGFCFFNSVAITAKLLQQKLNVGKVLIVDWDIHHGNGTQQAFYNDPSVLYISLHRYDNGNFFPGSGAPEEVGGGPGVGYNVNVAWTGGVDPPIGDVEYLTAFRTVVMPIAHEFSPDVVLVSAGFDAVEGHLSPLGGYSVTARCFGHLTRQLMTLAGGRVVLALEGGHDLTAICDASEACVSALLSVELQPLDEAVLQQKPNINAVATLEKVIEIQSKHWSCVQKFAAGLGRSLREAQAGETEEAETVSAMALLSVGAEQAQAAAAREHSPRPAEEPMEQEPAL
HDAC11, sequence (Q96DB2 whole entry, canonical isoform): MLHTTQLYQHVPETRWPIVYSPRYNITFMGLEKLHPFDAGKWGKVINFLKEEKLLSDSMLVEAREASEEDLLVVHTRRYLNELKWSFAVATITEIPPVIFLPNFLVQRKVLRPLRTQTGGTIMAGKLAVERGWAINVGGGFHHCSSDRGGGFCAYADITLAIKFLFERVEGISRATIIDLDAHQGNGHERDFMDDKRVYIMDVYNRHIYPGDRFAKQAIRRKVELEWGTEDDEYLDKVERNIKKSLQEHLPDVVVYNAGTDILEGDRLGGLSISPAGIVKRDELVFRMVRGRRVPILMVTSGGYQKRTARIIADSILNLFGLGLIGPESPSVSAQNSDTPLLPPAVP
HDAC8, sequence (Q9BY41 whole entry, canonical isoform): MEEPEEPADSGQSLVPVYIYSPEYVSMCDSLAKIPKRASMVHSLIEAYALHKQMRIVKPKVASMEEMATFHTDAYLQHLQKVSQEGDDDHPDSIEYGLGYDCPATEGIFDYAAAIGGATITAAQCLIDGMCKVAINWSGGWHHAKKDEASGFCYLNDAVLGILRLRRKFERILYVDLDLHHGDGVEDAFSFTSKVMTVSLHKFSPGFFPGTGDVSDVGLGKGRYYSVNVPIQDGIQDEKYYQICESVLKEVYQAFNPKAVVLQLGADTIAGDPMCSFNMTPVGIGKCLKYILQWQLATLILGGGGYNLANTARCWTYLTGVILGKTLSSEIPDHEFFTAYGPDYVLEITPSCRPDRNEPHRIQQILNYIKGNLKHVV

| SMILES | IC50 (HDAC7) [nM] | IC50 (HDAC5) [nM] | IC50 (HDAC11) [nM] | IC50 (HDAC8) [nM] | inhibitory activity on a panel of 97 kinases (panel of 97 kinases) | half-life [1] [h] | Remaining Percentage (%) 0 min ([1]; 0 min) [%] | Remaining Percentage (%) 15 min ([1]; 15 min) [%] | Remaining Percentage (%) 30 min ([1]; 30 min) [%] | Remaining Percentage (%) 45 min ([1]; 45 min) [%] | Remaining Percentage (%) 60 min ([1]; 60 min) [%] | Remaining Percentage (%) 120 min ([1]; 120 min) [%] | IC50 (MOLM-13) [nM] | IC50 (MRC9) [nM] | IC50 (K562) [nM] |
| --- | --- | --- | --- | --- | --- | --- | --- | --- | --- | --- | --- | --- | --- | --- | --- |
| O=C(NO)c1ccc(CN(Cc2cccnc2)S(=O)(=O)c2cc(F)c(F)c(F)c2F)cc1 [Compound I-18, N-hydroxy-4-((2,3,4,5-tetrafluoro-N-(pyridin-3-ylmethyl)phenylsulfonamido)methyl)benzamide] | > 1000 | > 1000 | > 1000 | 316 | limited to no inhibitory activity | 1.82 | 100 | 96.3 | 63.0 | 54.3 | 51.3 | 50.1 | – | – | – |
| O=C(NO)c1ccc(CN(C2CC2)S(=O)(=O)c2cc(F)c(F)c(F)c2F)cc1 [Compound I-13, 4-((N-cyclopropyl-2,3,4,5-tetrafluorophenylsulfonamido)methyl)-N-hydroxybenzamide] | > 1000 | > 1000 | > 1000 | 334 | – | – | – | – | – | – | – | – | 2000 | > 50000 | 7400 |
